In the OligoGym collection:
HELM strings list units from the 5' end as sugar, base in round brackets, then linkage (d deoxyribose, r ribose, m 2'-O-methyl, p phosphodiester). Strings are as the collection lists them, not checked against the first reports. ss, as = sense and antisense strand; [fl2r] = 2'-fluoro

Conditions: siRNA
Also: test system not given here.

Substance	target mRNA knockdown
RNA1{[fl2r](A)p.r(C)p.[fl2r](A)p.r(U)p.[fl2r](A)p.r(G)p.[fl2r](A)p.r(G)p.[fl2r](G)p.r(A)p.[fl2r](A)p.r(G)p.r(A)p.r(C)p.r(G)p.r(C)p.r(G)p.r(G)p.r(A)p.r(T)p.r(T)}|RNA2{[fl2r](U)p.r(C)p.[fl2r](C)p.r(G)p.[fl2r](C)p.r(G)p.[fl2r](U)p.r(C)p.[fl2r](U)p.r(U)p.[fl2r](C)p.r(C)p.[fl2r](U)p.r(C)p.[fl2r](U)p.r(A)p.[fl2r](U)p.r(G)p.r(U)p.r(T)p.r(T)}$$$RNA1{StrandType:ss}|RNA2{StrandType:as}$	57%
RNA1{[fl2r](A)p.r(C)p.[fl2r](C)p.r(U)p.[fl2r](U)p.r(A)p.[fl2r](A)p.r(G)p.[fl2r](G)p.r(A)p.[fl2r](C)p.r(C)p.[fl2r](A)p.r(C)p.[fl2r](C)p.r(G)p.[fl2r](G)p.r(A)p.[fl2r](U)p.r(T)p.r(T)}|RNA2{[fl2r](A)p.r(U)p.r(C)p.r(C)p.r(G)p.r(G)p.r(U)p.r(G)p.r(G)p.r(U)p.r(C)p.r(C)p.r(U)p.r(U)p.[fl2r](A)p.[fl2r](A)p.r(G)p.r(G)p.r(U)p.r(T)p.r(T)}$$$RNA1{StrandType:ss}|RNA2{StrandType:as}$	41%
RNA1{[fl2r](A)p.r(C)p.[fl2r](G)p.r(G)p.[fl2r](C)p.r(U)p.[fl2r](C)p.r(G)p.[fl2r](C)p.r(U)p.[fl2r](A)p.r(C)p.[fl2r](C)p.r(C)p.[fl2r](U)p.r(C)p.[fl2r](G)p.r(A)p.r(C)p.r(T)p.r(T)}|RNA2{r(G)p.r(U)p.r(C)p.r(G)p.r(A)p.r(G)p.r(G)p.r(G)p.r(U)p.r(A)p.r(G)p.r(C)p.r(G)p.r(A)p.r(G)p.r(C)p.r(C)p.r(G)p.r(U)p.r(T)p.r(T)}$$$RNA1{StrandType:ss}|RNA2{StrandType:as}$	72%
RNA1{[fl2r](A)p.r(G)p.[fl2r](A)p.r(A)p.[fl2r](G)p.r(U)p.[fl2r](A)p.r(C)p.[fl2r](C)p.r(A)p.[fl2r](G)p.r(G)p.[fl2r](A)p.r(G)p.[fl2r](G)p.r(C)p.[fl2r](G)p.r(U)p.[fl2r](U)p.r(T)p.r(T)}|RNA2{r(A)p.r(A)p.r(C)p.[fl2r](G)p.r(C)p.r(C)p.r(U)p.r(C)p.r(C)p.r(U)p.[fl2r](G)p.[fl2r](G)p.r(U)p.r(A)p.r(C)p.r(U)p.r(U)p.r(C)p.r(U)p.r(T)p.r(T)}$$$RNA1{StrandType:ss}|RNA2{StrandType:as}$	39%
RNA1{[fl2r](A)p.r(G)p.[fl2r](A)p.r(C)p.[fl2r](U)p.r(A)p.[fl2r](A)p.r(G)p.[fl2r](C)p.r(C)p.[fl2r](C)p.r(A)p.[fl2r](A)p.r(A)p.[fl2r](A)p.r(G)p.[fl2r](G)p.r(G)p.[fl2r](C)p.r(T)p.r(T)}|RNA2{r(G)p.r(C)p.r(C)p.r(C)p.r(U)p.r(U)p.r(U)p.r(U)p.r(G)p.r(G)p.r(G)p.r(C)p.r(U)p.r(U)p.r(A)p.r(G)p.r(U)p.r(C)p.r(U)p.r(T)p.r(T)}$$$RNA1{StrandType:ss}|RNA2{StrandType:as}$	26%
RNA1{[fl2r](A)p.r(G)p.[fl2r](A)p.r(G)p.[fl2r](A)p.r(G)p.[fl2r](G)p.r(U)p.[fl2r](G)p.r(G)p.[fl2r](A)p.r(G)p.[fl2r](G)p.r(U)p.[fl2r](A)p.r(U)p.[fl2r](C)p.r(U)p.[fl2r](C)p.r(T)p.r(T)}|RNA2{r(G)p.[fl2r](A)p.r(G)p.[fl2r](A)p.r(U)p.[fl2r](A)p.r(C)p.r(C)p.r(U)p.r(C)p.r(C)p.[fl2r](A)p.r(C)p.r(C)p.r(U)p.r(C)p.r(U)p.r(C)p.r(U)p.r(T)p.r(T)}$$$RNA1{StrandType:ss}|RNA2{StrandType:as}$	68%
RNA1{[fl2r](A)p.r(G)p.[fl2r](C)p.r(C)p.[fl2r](C)p.r(A)p.[fl2r](G)p.r(A)p.[fl2r](U)p.r(A)p.[fl2r](G)p.r(C)p.[fl2r](U)p.r(C)p.[fl2r](U)p.r(U)p.[fl2r](C)p.r(A)p.[fl2r](G)p.r(T)p.r(T)}|RNA2{r(C)p.r(U)p.r(G)p.r(A)p.r(A)p.r(G)p.r(A)p.r(G)p.r(C)p.r(U)p.r(A)p.r(U)p.r(C)p.r(U)p.r(G)p.r(G)p.r(G)p.r(C)p.r(U)p.r(T)p.r(T)}$$$RNA1{StrandType:ss}|RNA2{StrandType:as}$	35%
RNA1{[fl2r](A)p.r(G)p.[fl2r](C)p.r(C)p.[fl2r](U)p.r(C)p.[fl2r](C)p.r(A)p.[fl2r](A)p.r(A)p.[fl2r](C)p.r(U)p.[fl2r](C)p.r(C)p.[fl2r](U)p.r(A)p.[fl2r](G)p.r(C)p.[fl2r](U)p.r(T)p.r(T)}|RNA2{r(A)p.r(G)p.r(C)p.r(U)p.r(A)p.r(G)p.r(G)p.r(A)p.r(G)p.r(U)p.r(U)p.r(U)p.r(G)p.r(G)p.r(A)p.r(G)p.r(G)p.r(C)p.r(U)p.r(T)p.r(T)}$$$RNA1{StrandType:ss}|RNA2{StrandType:as}$	16%
RNA1{[fl2r](A)p.r(G)p.[fl2r](G)p.r(A)p.[fl2r](G)p.r(A)p.[fl2r](C)p.r(C)p.[fl2r](G)p.r(U)p.[fl2r](G)p.r(A)p.[fl2r](C)p.r(A)p.[fl2r](U)p.r(U)p.[fl2r](U)p.r(C)p.[fl2r](G)p.r(T)p.r(T)}|RNA2{r(C)p.[fl2r](G)p.r(A)p.r(A)p.r(A)p.r(U)p.[fl2r](G)p.r(U)p.r(C)p.r(A)p.r(C)p.[fl2r](G)p.[fl2r](G)p.r(U)p.r(C)p.r(U)p.r(C)p.r(C)p.r(U)p.r(T)p.r(T)}$$$RNA1{StrandType:ss}|RNA2{StrandType:as}$	33%
RNA1{[fl2r](A)p.r(G)p.[fl2r](U)p.r(U)p.[fl2r](A)p.r(A)p.[fl2r](C)p.r(C)p.[fl2r](C)p.r(G)p.[fl2r](G)p.r(G)p.[fl2r](A)p.r(C)p.[fl2r](U)p.r(U)p.[fl2r](G)p.r(G)p.[fl2r](A)p.r(T)p.r(T)}|RNA2{r(U)p.r(C)p.r(C)p.r(A)p.r(A)p.r(G)p.r(U)p.r(C)p.r(C)p.r(C)p.r(G)p.r(G)p.r(G)p.r(U)p.r(U)p.r(A)p.r(A)p.r(C)p.r(U)p.r(T)p.r(T)}$$$RNA1{StrandType:ss}|RNA2{StrandType:as}$	65%
RNA1{[fl2r](A)p.r(G)p.[fl2r](U)p.r(U)p.[fl2r](U)p.r(C)p.[fl2r](U)p.r(A)p.[fl2r](G)p.r(G)p.[fl2r](G)p.[fl2r](C)p.r(C)p.[fl2r](G)p.r(U)p.r(G)p.[fl2r](G)p.r(C)p.r(C)p.r(T)p.r(T)}|RNA2{r(G)p.r(G)p.r(C)p.r(C)p.r(A)p.r(C)p.r(G)p.r(G)p.r(C)p.r(C)p.r(C)p.r(U)p.r(A)p.r(G)p.r(A)p.r(A)p.r(A)p.r(C)p.r(U)p.r(T)p.r(T)}$$$RNA1{StrandType:ss}|RNA2{StrandType:as}$	75%
RNA1{[fl2r](A)p.r(G)p.r(A)p.[fl2r](G)p.r(A)p.[fl2r](A)p.r(G)p.[fl2r](G)p.[fl2r](G)p.r(C)p.r(G)p.[fl2r](U)p.r(C)p.r(U)p.r(C)p.[fl2r](U)p.r(A)p.[fl2r](C)p.r(A)p.r(T)p.r(T)}|RNA2{r(U)p.r(G)p.r(U)p.r(A)p.r(G)p.r(A)p.r(G)p.r(A)p.r(C)p.r(G)p.r(C)p.r(C)p.r(C)p.r(U)p.r(U)p.r(C)p.r(U)p.r(C)p.r(U)p.r(T)p.r(T)}$$$RNA1{StrandType:ss}|RNA2{StrandType:as}$	75%
RNA1{[fl2r](A)p.r(U)p.[fl2r](C)p.r(G)p.[fl2r](C)p.r(U)p.[fl2r](G)p.r(C)p.[fl2r](U)p.r(C)p.[fl2r](C)p.r(U)p.[fl2r](C)p.r(C)p.[fl2r](U)p.r(C)p.[fl2r](C)p.r(U)p.[fl2r](C)p.r(T)p.r(T)}|RNA2{r(G)p.r(A)p.r(G)p.r(G)p.r(A)p.r(G)p.r(G)p.r(A)p.r(G)p.r(G)p.r(A)p.r(G)p.r(C)p.r(A)p.r(G)p.r(C)p.r(G)p.r(A)p.[fl2r](U)p.r(T)p.r(T)}$$$RNA1{StrandType:ss}|RNA2{StrandType:as}$	39%
RNA1{[fl2r](A)p.r(U)p.r(C)p.[fl2r](G)p.[fl2r](A)p.r(C)p.r(C)p.r(U)p.[fl2r](G)p.[fl2r](A)p.[fl2r](A)p.[fl2r](G)p.[fl2r](G)p.[fl2r](A)p.[fl2r](G)p.r(U)p.[fl2r](A)p.r(C)p.[fl2r](G)p.r(T)p.r(T)}|RNA2{r(C)p.[fl2r](G)p.r(U)p.[fl2r](A)p.r(C)p.r(U)p.r(C)p.r(C)p.r(U)p.r(U)p.r(C)p.[fl2r](A)p.[fl2r](G)p.[fl2r](G)p.r(U)p.r(C)p.[fl2r](G)p.[fl2r](A)p.r(U)p.r(T)p.r(T)}$$$RNA1{StrandType:ss}|RNA2{StrandType:as}$	21%
RNA1{[fl2r](C)p.[fl2r](U)p.r(A)p.[fl2r](G)p.r(A)p.r(G)p.[fl2r](G)p.r(A)p.[fl2r](U)p.[fl2r](C)p.[fl2r](U)p.[fl2r](U)p.r(G)p.r(A)p.[fl2r](A)p.r(G)p.r(A)p.[fl2r](C)p.[fl2r](C)p.r(T)p.r(T)}|RNA2{r(G)p.r(G)p.[fl2r](U)p.[fl2r](C)p.[fl2r](U)p.[fl2r](U)p.[fl2r](C)p.r(A)p.r(A)p.r(G)p.r(A)p.[fl2r](U)p.[fl2r](C)p.[fl2r](C)p.[fl2r](U)p.[fl2r](C)p.[fl2r](U)p.r(A)p.r(G)p.r(T)p.r(T)}$$$RNA1{StrandType:ss}|RNA2{StrandType:as}$	12%
RNA1{[fl2r](C)p.r(A)p.r(G)p.[fl2r](C)p.r(A)p.r(A)p.r(A)p.[fl2r](C)p.[fl2r](C)p.r(A)p.[fl2r](C)p.r(G)p.r(A)p.[fl2r](U)p.[fl2r](C)p.r(A)p.r(A)p.[fl2r](U)p.r(A)p.r(T)p.r(T)}|RNA2{[fl2r](U)p.r(A)p.[fl2r](U)p.[fl2r](U)p.r(G)p.r(A)p.[fl2r](U)p.[fl2r](C)p.r(G)p.[fl2r](U)p.r(G)p.r(G)p.[fl2r](U)p.[fl2r](U)p.[fl2r](U)p.r(G)p.[fl2r](C)p.[fl2r](U)p.r(G)p.r(T)p.r(T)}$$$RNA1{StrandType:ss}|RNA2{StrandType:as}$	71%
RNA1{[fl2r](C)p.r(A)p.r(G)p.r(A)p.r(G)p.[fl2r](C)p.r(A)p.r(A)p.[fl2r](U)p.[fl2r](U)p.r(G)p.[fl2r](U)p.[fl2r](U)p.[fl2r](U)p.r(A)p.[fl2r](C)p.[fl2r](C)p.[fl2r](U)p.r(A)p.r(T)p.r(T)}|RNA2{[fl2r](U)p.r(A)p.r(G)p.r(G)p.[fl2r](U)p.r(A)p.r(A)p.r(A)p.[fl2r](C)p.r(A)p.r(A)p.[fl2r](U)p.[fl2r](U)p.r(G)p.[fl2r](C)p.[fl2r](U)p.[fl2r](C)p.r(U)p.r(G)p.r(T)p.r(T)}$$$RNA1{StrandType:ss}|RNA2{StrandType:as}$	72%
